Tests used:
[1] = tested on: Hela cells transiently transfected with APP Swedish/Indiana double mutant (APPSw-I); assay: Ab 40 ELISA of supernatants of Hela cells transfected with APPSw-I construct; assay type: cell-based, human; conditions: treated two days with 10000, 1000, 100, 1 nM, FIG. 1
Excerpt: (§1) The Amyloid precursor protein (APP) can be processed by proteases, first by beta secretase (BACE1) then followed by gamma secretase to generate peptide fragments including sizes of 40 and 42 amino acids named abeta (Ab), e.g. Ab 1-40 and Ab 1-42. Several familial Alzheimer disease-related mutations and truncated mutants in the APP gene have been described in the investigation of APP processing to Ab in vitro and in vivo. […] Briefly, two constructs were used to generate Ab:(1) APP Swedish/Indiana double mutant (APPSw-I) in the 695 amino acid APP construct combines the Swedish mutant APP K670N, M671L (Mullan M et al, A pathogenic mutation for probable Alzheimer's disease in the APP gene at the N-terminus of beta-amyloid. Nat Genet., 1992 August; 1(5):345-7) and the Indiana mutation APP V717F (Suzuki N et al, An increased percentage of long amyloid beta protein secreted by familial amyloid beta protein precursor (beta APP717) mutants. Science, 1994 May 27; 264(5163): 1336-40); and (2) C99 APP truncated mutant (C99) fragment encoding the last 99-aa of APP 695, this construct mimics the BACE1 cleaved APP at the major Asp+1 site of Aβ to generate C99. […]

[2] = tested on: Hela cells transiently transfected with C99 APP truncated mutant (C99); assay: Ab 40 ELISA of supernatants of Hela cells transfected with C99 construct; assay type: cell-based, human; conditions: treated two days with 10000, 1000, 100, 1 nM, FIG. 2
Excerpt: as §1

Cc1cccc(/C=N/Nc2cc(N3CCOCC3)nc(OCCc3ccccn3)n2)c1 [apilimod]
Ab concentration in cell culture supernatant [1]: dose dependent decrease of Ab
Ab concentration in cell culture supernatant [2]: dose dependent decrease of Ab
